The results in this text go back to ChEMBL document CHEMBL1240303, “Inhibiting transcription of chromosomal DNA with antigene peptide nucleic acids” (2005).

Calls of active or inactive are those of the source. The calls are words filed in the database; no cut-off is given here.

For experiment [1], the system named is T47D. The experiment in a line: Induction of morphology changes in human T47D cells expressing human progesterone receptor assessed as increase in cell height by confocal microscopy. It counts as functional, cell-based.
Experiment [2] concerns T47D. The experiment in a line: Reduction in cell proliferation of human T47D cells expressing human progesterone receptor by FACS method. Format: functional, cell-based. Background: A flow cytometer gives signals particle by particle.
Experiment [3] relates to T47D. Description: Increase in Ezrin mRNA expression in human T47D cells expressing human progesterone receptor by RT-PCR relative to untreated control. It counts as functional.
Experiment [4] deals with T47D. Description: Inhibition of human progesterone receptor A protein expression transfected in human T47D cells at 200 nM by Western blot. It counts as functional. For orientation: In western blotting, separated proteins are transferred to a membrane and probed.
Experiment [5] concerns T47D. Description: Inhibition of human progesterone receptor B protein expression transfected in human T47D cells at 200 nM by Western blot. It counts as functional.
Experiment [6] relates to T47D. The experiment in a line: Inhibition of human progesterone receptor A gene expression transfected in human T47D cells at 200 nM by RT-PCR. It counts as functional, cell-based.
Experiment [7] has as its system T47D. Description: Inhibition of human progesterone receptor B gene expression transfected in human T47D cells at 200 nM by RT-PCR. It counts as functional, cell-based.
Experiment [8] deals with T47D. Description: Inhibition of human progesterone receptor A protein expression transfected in human T47D cells at 200 nM in presence of 10 nM of estradiol by Western blot. It counts as functional, cell-based.
Experiment [9] has as its system T47D. Description: Inhibition of human progesterone receptor B protein expression transfected in human T47D cells at 200 nM in presence of 10 nM of estradiol by Western blot. Format: functional, cell-based.

`Cc1cn([C@@H]2O[C@H](COP(=O)(O)O[C@H]3[C@@H](O)[C@H](n4cnc5c(=O)[nH]c(N)nc54)O[C@@H]3COP(=O)(O)O[C@H]3[C@@H](O)[C@H](n4ccc(=O)[nH]c4=O)O[C@@H]3COP(=O)(O)O[C@H]3C[C@H](n4cnc5c(N)ncnc54)O[C@@H]3COP(=O)(O)O[C@H]3[C@@H](O)[C@H](N4CC=C(N)NC4=O)O[C@@H]3COP(=O)(O)O[C@H]3[C@@H](O)[C@H](n4ccc(=O)[nH]c4=O)O[C@@H]3COP(=O)(O)O[C@H]3[C@@H](O)[C@H](N4CC=C(N)NC4=O)O[C@@H]3COP(=O)(O)O[C@H]3C[C@H](n4cnc5c(=O)[nH]c(N)nc54)O[C@@H]3COP(=O)(O)O[C@H]3[C@@H](O)[C@H](n4ccc(N)nc4=O)O[C@@H]3COP(=O)(O)O[C@H]3[C@@H](O)[C@H](n4ccc(N)nc4=O)O[C@@H]3COP(=O)(O)O[C@H]3[C@@H](O)[C@H](n4ccc(N)nc4=O)O[C@@H]3COP(=O)(O)O[C@H]3[C@@H](O)[C@H](n4ccc(N)nc4=O)O[C@@H]3COP(=O)(O)O[C@H]3[C@@H](O)[C@H](n4ccc(=O)[nH]c4=O)O[C@@H]3COP(=O)(O)O[C@H]3[C@@H](O)[C@H](n4cnc5c(=O)[nH]c(N)nc54)O[C@@H]3COP(=O)(O)O[C@H]3[C@@H](O)[C@H](n4ccc(=O)[nH]c4=O)O[C@@H]3COP(=O)(O)O[C@H]3C[C@H](n4ccc(=O)[nH]c4=O)O[C@@H]3COP(=O)(O)O[C@H]3[C@@H](O)[C@H](n4cnc5c(=O)[nH]c(N)nc54)O[C@@H]3COP(=O)(O)O[C@H]3[C@@H](O)[C@H](n4ccc(=O)[nH]c4=O)O[C@@H]3COP(=O)(O)O[C@H]3[C@@H](O)[C@H](n4cnc5c(=O)[nH]c(N)nc54)O[C@@H]3COP(=O)(O)O[C@H]3[C@@H](O)[C@H](n4cnc5c(=O)[nH]c(N)nc54)O[C@@H]3CO)[C@@H](OP(=O)(O)OC[C@H]3O[C@@H](n4cc(C)c(=O)[nH]c4=O)C[C@@H]3O)[C@H]2O)c(=O)[nH]c1=O`: the outcome in experiment [1] and in [2] was Active. Moreover, the “fold change (FC)” value in experiment [3] turned out to be 5.5.

For orientation: inhibition means how much of the control response was suppressed. Regarding `Cc1cn(CC(=O)N(CCNC(=O)CNC(=O)[C@@H](N)CCCCN)CC(=O)NCCN(CC(=O)NCCN(CC(=O)NCCN(CC(=O)NCCN(CC(=O)NCCN(CC(=O)NCCN(CC(=O)NCCN(CC(=O)NCCN(CC(=O)NCCN(CC(=O)NCCN(CC(=O)NCCN(CC(=O)NCCN(CC(=O)NCCN(CC(=O)NCCN(CC(=O)NCCN(CC(=O)NCCN(CC(=O)NCCN(CC(=O)NCCN(CC(=O)N[C@@H](CCCCN)C(=O)O)C(=O)Cn2ccc(N)nc2=O)C(=O)Cn2cnc3c(=O)[nH]c(N)nc32)C(=O)Cn2cnc3c(=O)[nH]c(N)nc32)C(=O)Cn2cc(C)c(=O)[nH]c2=O)C(=O)Cn2cnc3c(N)ncnc32)C(=O)Cn2cnc3c(=O)[nH]c(N)nc32)C(=O)Cn2cc(C)c(=O)[nH]c2=O)C(=O)Cn2cc(C)c(=O)[nH]c2=O)C(=O)Cn2cnc3c(=O)[nH]c(N)nc32)C(=O)Cn2cnc3c(N)ncnc32)C(=O)Cn2cnc3c(=O)[nH]c(N)nc32)C(=O)Cn2ccc(N)nc2=O)C(=O)Cn2ccc(N)nc2=O)C(=O)Cn2cnc3c(N)ncnc32)C(=O)Cn2cnc3c(=O)[nH]c(N)nc32)C(=O)Cn2ccc(N)nc2=O)C(=O)Cn2cnc3c(N)ncnc32)C(=O)Cn2ccc(N)nc2=O)c(=O)[nH]c1=O`, the inhibition entry in experiment [4], in experiment [5], in experiment [6] and in experiment [7] was “inactive” each time. For the same molecule, the outcome in experiment [1], in experiment [2] and in experiment [3] was inactive.

Consider `Cc1cn(CC(=O)N(CCNCC(=O)N(CCNC(=O)CN(CCNC(=O)CN(CCNC(=O)CN(CCNC(=O)CN(CCNC(=O)CN(CCNC(=O)CN(CCNC(=O)CN(CCNC(=O)CN(CCNC(=O)CN(CCNC(=O)CN(CCNC(=O)CN(CCNC(=O)CNC(=O)[C@@H](N)CCCCN)C(=O)Cn2cc(C)c(=O)[nH]c2=O)C(=O)Cn2cnc3nc(N)[nH]c(=O)c32)C(=O)Cn2c(N)ccnc2=O)C(=O)Cn2c(N)ccnc2=O)C(=O)Cn2c(N)ccnc2=O)C(=O)Cn2c(N)ccnc2=O)C(=O)Cn2c(N)ccnc2=O)C(=O)Cn2cnc3c(N)ncnc32)C(=O)Cn2cnc3nc(N)[nH]c(=O)c32)C(=O)Cn2cnc3c(N)ncnc32)C(=O)Cn2c(N)ccnc2=O)C(=O)Cn2cnc3c(N)ncnc32)CC(=O)NCCN(CC(=O)NCCN(CC(=O)NCCN(CC(=O)NCCN(CC(=O)NCCN(CC(=O)NCCN(CC(=O)N[C@@H](CCCCN)C(=O)O)C(=O)Cn2c(N)ccnc2=O)C(=O)Cn2cnc3nc(N)[nH]c(=O)c32)C(=O)Cn2cnc3nc(N)[nH]c(=O)c32)C(=O)Cn2cc(C)c(=O)[nH]c2=O)C(=O)Cn2c(N)ccnc2=O)C(=O)Cn2cnc3nc(N)[nH]c(=O)c32)c(=O)[nH]c1=O`, for which the inhibition result in experiment [4] and in experiment [5] was “inactive” in each case.

In the case of `Cc1cn([C@H]2C[C@H](OP(=O)(O)OC[C@H]3O[C@@H](n4cc(C)c(=O)[nH]c4=O)C[C@@H]3O)[C@@H](COP(=O)(O)O[C@H]3[C@@H](O)[C@H](n4ccc(=O)[nH]c4=O)O[C@@H]3COP(=O)(O)O[C@H]3[C@@H](O)[C@H](n4ccc(N)nc4=O)O[C@@H]3COP(=O)(O)O[C@H]3[C@@H](O)[C@H](n4cnc5c(N)ncnc54)O[C@@H]3COP(=O)(O)O[C@H]3C[C@H](n4cnc5c(N)ncnc54)O[C@@H]3COP(=O)(O)O[C@H]3[C@@H](O)[C@H](n4ccc(N)nc4=O)O[C@@H]3COP(=O)(O)O[C@H]3C[C@H](n4cnc5c(N)ncnc54)O[C@@H]3COP(=O)(O)O[C@H]3[C@@H](O)[C@H](N4CC=C(N)NC4=O)O[C@@H]3COP(=O)(O)O[C@H]3[C@@H](O)[C@H](n4cnc5c(=O)[nH]c(N)nc54)O[C@@H]3COP(=O)(O)O[C@H]3[C@@H](O)[C@H](n4cnc5c(N)ncnc54)O[C@@H]3COP(=O)(O)O[C@H]3[C@@H](O)[C@H](N4CC=C(N)NC4=O)O[C@@H]3COP(=O)(O)O[C@H]3[C@@H](O)[C@H](n4cnc5c(=O)[nH]c(N)nc54)O[C@@H]3COP(=O)(O)O[C@H]3[C@@H](O)[C@H](n4cnc5c(=O)[nH]c(N)nc54)O[C@@H]3COP(=O)(O)O[C@H]3[C@@H](O)[C@H](n4cnc5c(=O)[nH]c(N)nc54)O[C@@H]3COP(=O)(O)O[C@H]3C[C@H](n4cnc5c(N)ncnc54)O[C@@H]3COP(=O)(O)O[C@H]3[C@@H](O)[C@H](n4cnc5c(N)ncnc54)O[C@@H]3COP(=O)(O)O[C@H]3[C@@H](O)[C@H](n4cnc5c(=O)[nH]c(N)nc54)O[C@@H]3COP(=O)(O)O[C@H]3[C@@H](O)[C@H](n4cnc5c(=O)[nH]c(N)nc54)O[C@@H]3COP(=O)(O)O[C@H]3[C@@H](O)[C@H](n4ccc(=O)[nH]c4=O)O[C@@H]3COP(=O)(O)O[C@H]3[C@@H](O)[C@H](n4cnc5c(N)ncnc54)O[C@@H]3CO)O2)c(=O)[nH]c1=O`, the result in experiment [1] and in [2] was Active.

As for `Cc1cn(CC(=O)N(CCNC(=O)CNC(=O)[C@@H](N)CCCCN)CC(=O)NCCN(CC(=O)NCCN(CC(=O)NCCN(CC(=O)NCCN(CC(=O)NCCN(CC(=O)NCCN(CC(=O)NCCN(CC(=O)NCCN(CC(=O)NCCN(CC(=O)NCCN(CC(=O)NCCN(CC(=O)NCCN(CC(=O)NCCN(CC(=O)NCCN(CC(=O)NCCN(CC(=O)NCCN(CC(=O)NCCN(CC(=O)NCCN(CC(=O)N[C@@H](CCCCN)C(=O)O)C(=O)Cn2ccc(N)nc2=O)C(=O)Cn2cnc3c(=O)[nH]c(N)nc32)C(=O)Cn2cnc3c(=O)[nH]c(N)nc32)C(=O)Cn2cnc3c(N)ncnc32)C(=O)Cn2cnc3c(N)ncnc32)C(=O)Cn2cnc3c(=O)[nH]c(N)nc32)C(=O)Cn2cc(C)c(=O)[nH]c2=O)C(=O)Cn2ccc(N)nc2=O)C(=O)Cn2cnc3c(=O)[nH]c(N)nc32)C(=O)Cn2cnc3c(N)ncnc32)C(=O)Cn2cnc3c(=O)[nH]c(N)nc32)C(=O)Cn2cc(C)c(=O)[nH]c2=O)C(=O)Cn2ccc(N)nc2=O)C(=O)Cn2cnc3c(N)ncnc32)C(=O)Cn2cnc3c(=O)[nH]c(N)nc32)C(=O)Cn2cc(C)c(=O)[nH]c2=O)C(=O)Cn2cnc3c(N)ncnc32)C(=O)Cn2ccc(N)nc2=O)c(=O)[nH]c1=O`, the inhibition at 0.2 µM in experiment [4] and in experiment [5] was 75% throughout. Besides, the inhibition entry in experiment [8] and in [9] was “Active” in each case. Moreover, the inhibition entry in experiment [6] and in [7] was “inactive” in each case. Besides, the result in experiment [1] and in experiment [2] was Active. In addition, in [3], the “fold change (FC)” value was determined as 6.

Regarding `Cc1cn(CC(=O)N(CCNC(=O)CN(CCNC(=O)CN(CCNC(=O)CN(CCNC(=O)CN(CCNC(=O)CN(CCNC(=O)CN(CCNC(=O)CNC(=O)[C@@H](N)CCCCN)C(=O)Cn2c(N)ccnc2=O)C(=O)Cn2cnc3c(N)ncnc32)C(=O)Cn2c(N)ccnc2=O)C(=O)Cn2cnc3nc(N)[nH]c(=O)c32)C(=O)Cn2cnc3c(N)ncnc32)C(=O)Cn2cc(C)c(=O)[nH]c2=O)CC(=O)NCCN(CC(=O)NCCN(CC(=O)NCCN(CC(=O)NCCN(CC(=O)NCCN(C(=O)CNCCN(CC(=O)NCCN(CC(=O)NCCN(CC(=O)NCCN(CC(=O)NCCN(CC(=O)NCCN(CC(=O)NCCN(CC(=O)N[C@@H](CCCCN)C(=O)O)C(=O)Cn2cc(C)c(=O)[nH]c2=O)C(=O)Cn2cc(C)c(=O)[nH]c2=O)C(=O)Cn2cc(C)c(=O)[nH]c2=O)C(=O)Cn2cnc3nc(N)[nH]c(=O)c32)C(=O)Cn2cc(C)c(=O)[nH]c2=O)C(=O)Cn2cnc3c(N)ncnc32)C(=O)Cn2c(N)ccnc2=O)C(=O)Cn2cnc3nc(N)[nH]c(=O)c32)C(=O)Cn2cc(C)c(=O)[nH]c2=O)C(=O)Cn2c(N)ccnc2=O)C(=O)Cn2cc(C)c(=O)[nH]c2=O)C(=O)Cn2cc(C)c(=O)[nH]c2=O)c(=O)[nH]c1=O`, the inhibition result in experiment [4] and in experiment [5] was “inactive” throughout. For the same molecule, the outcome in [1] and in experiment [2] was inactive.
